Laboratory results as given in patent US11787762B2, “Tetralin and tetrahydroquinoline compounds as inhibitors of HIF-2alpha” (ARCUS BIOSCIENCES, INC., priority 2020, dated 2023).

Assays:
[1] = molecular target: T1, Histidine tagged HIF-2α protein containing PAS-B domain (240-350) (Homo sapiens, UniProt Q99814); test: HIF-2α Scintillation Proximity Assay (SPA) binding assay; conditions: 50 nM HIF-2α protein, 25 nM 3H-tracer
T1 construct: HIF-2α protein containing PAS-B domain (240-350); made in house
T1 sequence (Q99814 240-350): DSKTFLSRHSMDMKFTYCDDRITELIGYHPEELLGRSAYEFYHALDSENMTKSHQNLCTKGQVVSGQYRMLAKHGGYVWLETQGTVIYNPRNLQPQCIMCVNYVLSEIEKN
Procedure, shortened: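 His-tagged HIF-2α PAS-B (240-350), 50 nM final, preincubated with compound 1 h at room temperature in 25 mM Tris-HCl pH 7.4, 150 mM NaCl, 0.15% BSA, 0.001% Tween 20, 2% DMSO. Copper-chelate SPA beads (3 ug/well, 45 min) and 25 nM tritiated N-(3-chlorophenyl)-4-nitro-2,1,3-benzoxadiazol-5-amine tracer followed; IC50 from four-parameter fits.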

HIF-2α = molecular target: T2, HIF-2α (Homo sapiens, UniProt Q99814); test: HIF-2α luciferase reporter assay in HIF-Luc-786-O cells; assay type: cell-based
T2 construct: host or cells: 786-O cells stably transduced with Cignal Lenti HIF Luc Reporter (only the reporter was introduced, not HIF-2α)
T2 sequence (Q99814 whole entry): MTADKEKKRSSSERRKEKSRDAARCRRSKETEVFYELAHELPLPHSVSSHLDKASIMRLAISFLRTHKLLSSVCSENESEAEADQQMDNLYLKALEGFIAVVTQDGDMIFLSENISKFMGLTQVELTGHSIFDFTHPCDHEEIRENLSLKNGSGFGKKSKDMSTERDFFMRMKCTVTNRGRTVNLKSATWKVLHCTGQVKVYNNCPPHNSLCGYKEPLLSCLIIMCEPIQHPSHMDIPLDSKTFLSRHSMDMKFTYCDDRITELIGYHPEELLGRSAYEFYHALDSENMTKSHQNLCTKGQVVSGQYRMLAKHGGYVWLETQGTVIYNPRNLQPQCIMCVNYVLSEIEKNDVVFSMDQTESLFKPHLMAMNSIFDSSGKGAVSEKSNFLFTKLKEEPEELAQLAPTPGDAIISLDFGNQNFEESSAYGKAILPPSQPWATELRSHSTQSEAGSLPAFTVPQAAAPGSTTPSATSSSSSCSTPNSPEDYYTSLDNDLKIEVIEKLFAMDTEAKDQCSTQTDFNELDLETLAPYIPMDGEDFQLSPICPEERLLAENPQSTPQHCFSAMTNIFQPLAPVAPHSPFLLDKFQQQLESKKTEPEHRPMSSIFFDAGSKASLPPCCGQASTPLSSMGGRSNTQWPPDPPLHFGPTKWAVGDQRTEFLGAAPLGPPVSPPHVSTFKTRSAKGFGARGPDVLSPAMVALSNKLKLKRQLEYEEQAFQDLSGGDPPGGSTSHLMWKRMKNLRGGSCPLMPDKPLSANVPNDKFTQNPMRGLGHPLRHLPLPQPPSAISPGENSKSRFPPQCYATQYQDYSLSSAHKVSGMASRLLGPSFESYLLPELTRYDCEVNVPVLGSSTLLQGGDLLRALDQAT
Procedure, shortened: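 Luminescence (ONE-Glo) read after 20 h compound incubation, top concentration 50 uM, 1% DMSO, 20,000 HIF-Luc-786-O cells per well. Activity scaled between DMSO maximum and no-cell baseline; four-parameter dose-response fits yielded IC50.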

IC50 ([1]; Table 2) [nM] | IC50 (HIF-2α; Table 2, 20 hours incubation) [nM] | IC50 ([1]; Table 3) [nM] | IC50 (HIF-2α; Table 3, 20 hours incubation) [nM] | Compound
< 100 | < 100 |  |  | N#Cc1cc(F)cc2c1[C@@H](c1ccc(S(=O)(=O)C(F)(F)F)c3c1C[C@@H](F)[C@H]3O)CC[C@@H]2F [Example 136, (5S,8R)-3,5-Difluoro-8-[(1S,2R)-2-fluoro-1-hydroxy-7-(trifluoromethylsulfonyl)-2,3-dihydro-1H-inden-4-yl]-5,6,7,8-tetrahydronaphthalene-1-carbonitrile]
< 100 | < 100 |  |  | N#Cc1cc(F)cc2c1[C@@H](c1ccc(C(F)(F)F)c(Cl)c1C#N)CC[C@@H]2F [Example 137, (5S,8R)-8-[3-Chloro-2-cyano-4-(trifluoromethyl)phenyl]-3,5-difluoro-5,6,7,8-tetrahydronaphthalene-1-carbonitrile]
> 1000 | 100 to 1000 |  |  | N#Cc1cc(F)cc2c1[C@@H](c1ccc(C(F)(F)F)c(Cl)c1C#N)CC[C@H]2F [Example 138, (5R,8R)-8-[3-chloro-2-cyano-4-(trifluoromethyl)phenyl]-3,5-difluoro-5,6,7,8-tetrahydronaphthalene-1-carbonitrile]
< 100 | < 100 |  |  | Cc1c([C@H]2CC[C@H](F)c3cc(F)cc(C#N)c32)cnc(C(C)(F)F)c1F [Example 139, (5S,8S)-8-[6-(1,1-difluoroethyl)-5-fluoro-4-methylpyridin-3-yl]-3,5-difluoro-5,6,7,8-tetrahydronaphthalene-1-carbonitrile]
< 100 | < 100 |  |  | CS(=O)(=O)c1ccc([C@H]2CCCc3cc(F)cc(C#N)c32)c2c1[C@H](O)[C@H](F)[C@@H]2F [Example 140, (8R)-8-[(1S,2S,3R)-2,3-difluoro-1-hydroxy-7-methylsulfonyl-2,3-dihydro-1H-inden-4-yl]-3-fluoro-5,6,7,8-tetrahydronaphthalene-1-carbonitrile]
< 100 | < 100 |  |  | N#Cc1cc(F)cc2c1[C@@H](c1ccc(C(F)(F)F)c3c1C(=O)OC3)CC[C@@H]2F [Example 142, (5S,8R)-3,5-Difluoro-8-[3-oxo-7-(trifluoromethyl)-1,3-dihydro-2-benzofuran-4-yl]-5,6,7,8-tetrahydronaphthalene-1-carbonitrile]
< 100 | < 100 |  |  | Cn1nccc1-c1ccc([C@H]2CC[C@H](F)c3cc(F)cc(C#N)c32)c2c1[C@H](O)C(F)(F)C2 [Example 143, (5S,8R)-8-[(1S)-2,2-difluoro-1-hydroxy-7-(2-methylpyrazol-3-yl)-1,3-dihydroinden-4-yl]-3,5-difluoro-5,6,7,8-tetrahydronaphthalene-1-carbonitrile]
 |  | < 100 | < 100 | Cn1ncc(C#N)c1-c1ccc([C@H]2CC[C@H](F)c3cc(F)cc(C#N)c32)c2c1[C@H](O)C(F)(F)C2 [Example 145, 5-[(3S)-7-[(1R,4S)-8-cyano-4,6-difluoro-1,2,3,4-tetrahydronaphthalen-1-yl]-2,2-difluoro-3-hydroxy-1,3-dihydroinden-4-yl]-1-methylpyrazole-4-carbonitrile]
 |  | < 100 | < 100 | Cn1nncc1-c1ccc([C@H]2CC[C@H](F)c3cc(F)cc(C#N)c32)c2c1[C@H](O)C(F)(F)C2 [Example 147, (5S,8R)-8-[(1S)-2,2-difluoro-1-hydroxy-7-(3-methyltriazol-4-yl)-1,3-dihydroinden-4-yl]-3,5-difluoro-5,6,7,8-tetrahydronaphthalene-1-carbonitrile]
 |  | < 100 | < 100 | Cc1cnn(C)c1-c1ccc([C@H]2CC[C@H](F)c3cc(F)cc(C#N)c32)c2c1[C@H](O)[C@H](F)C2 [Example 152]
 |  | < 100 | < 100 | N#Cc1cc(F)cc2c1[C@@H](c1ccc(-c3cccnc3N)c3c1CC(F)(F)[C@H]3O)CC[C@@H]2F [Example 153, (5S,8R)-8-[(1S)-7-(2-aminopyridin-3-yl)-2,2-difluoro-1-hydroxy-1,3-dihydroinden-4-yl]-3,5-difluoro-5,6,7,8-tetrahydronaphthalene-1-carbonitrile]
